Assay: gradient 5% acetonitrile 3 min, to 50% in 2 min, to 85% in 15 min, held 3 min, 100 µL/min
Details: column: Zorbax Extend-C18 2.1 x 50 mm; eluents: water / acetonitrile, 0.1% formic acid
Method in brief: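 Standards, all pure, were combined into mixtures of ~100 molecules and run at 100 μL/min on a Zorbax Extend-C18 column (2.1 × 50 mm, 1.8 μm) with water and acetonitrile, each containing 0.1% formic acid. A coupled quadrupole time-of-flight mass spectrometer operated in positive and negative ionization mode. Retention time values come from computationally picked adduct peaks, each inspected manually.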

RP-LC retention time [s]	Structure (SMILES)
1060	COc1cccc(Nc2nc(C)c(C(=O)Nc3ccc(F)c(Cl)c3)s2)c1
586	O=S(=O)(/C=C/c1ccccc1)NCC1CCN(Cc2ccsc2)CC1
826	CCOC(=O)c1c(S(=O)(=O)N2CCC(C(=O)NCCc3ccccc3)CC2)c(C)n(C)c1C
583	CCN1C(=O)Cc2cc(C(=O)N3CCN(C4CCCCC4)CC3)ccc21
993	CCn1c(=O)c2ccccc2n(Cc2nc(-c3ccc(OC)cc3)no2)c1=O
867	Cc1nn(CCC(=O)Nc2cccc(Cl)c2)c(=O)c2nn(-c3ccccc3)c(C)c12
871	Cc1ccc(NC(=O)C2CCCN(S(=O)(=O)c3c[nH]c(C(=O)N4CCCCCC4)c3)C2)cc1C (stereo not given)
637	Cc1cc(S(=O)(=O)N2CCn3c(nnc3C3CCN(C(C)C)C3)C2)ccc1Cl (stereo not given)
597	O=C(CN1C(=O)CCC1=O)NCC(O)C1CCCCC1 (stereo not given)
590	CCn1ccc(C(=O)NC2CCCN(c3cc(N(C)C)ncn3)C2)n1 (stereo not given)
722	CC(C)c1ccc(-n2c3c(cc(C(=O)N4CCOCC4)c2=O)C(=O)CCC3)cc1
632	O=C(NC1CC(=O)N(Cc2ccccc2)C1)c1cnccn1 (stereo not given)
660	COc1ccc(Cl)cc1S(=O)(=O)N1CCC(C(N)=O)CC1
1160	Cc1ccccc1-c1nc(C2CCN(S(=O)(=O)c3cccc(F)c3)CC2)no1
708	Cc1ccn2cc(C(=O)NCc3ccccc3C)nc2c1
636	Cn1cc(-c2ccccc2)cc1C(=O)NCCCN1CCOCC1
923	CC1Cc2ccccc2N1C(=O)CCn1c(=O)sc2ccccc21 (stereo not given)
732	COC(=O)c1ncn2c1C(=O)N(c1ccc(F)cc1)C(C)(C(=O)NCc1ccc(C)cc1)C2 (stereo not given)
1020	CCN(Cc1ccccc1)Cc1nc(-c2ccc(N3CCCC(C)C3)nc2)no1 (stereo not given)
861	CCn1cnc2ccc(-c3noc(-c4cccc(Cl)c4)n3)cc21
1310	Cc1nn(-c2nc(-c3ccc(Cl)cc3)cs2)c(C)c1CC(=O)N1CCCCC1C (stereo not given)
613	COCC(=O)Nc1ccc2c(c1)CCC(=O)N2C
1190	O=c1c2cc(-c3ccc(Cl)cc3)nn2ccn1Cc1nc(-c2cccc(F)c2)no1

RP-LC retention time [s]	Structure (SMILES)
889	O=C(NCc1csc(-c2ccccc2)n1)[C@H]1CCCN1C(=O)c1cccc(Br)c1
907	Cc1cc(C)cc(NC(=O)C2CCCN(c3ncnc4c3nc3n4CCCCC3)C2)c1 (stereo not given)
591	Cn1c(CCNC(=O)c2ccccc2F)nc2cccnc21
913	O=C(NCCc1csc(-c2ccc(F)cc2)n1)c1cccs1
1250	COc1cccc(-c2csc(Cc3nc(-c4cccc(C)c4)no3)n2)c1
619	CCn1cc(CCN2CCC(C(=O)NC3CCCCC3)CC2)c2cccnc21
887	Cc1ccc(S(=O)(=O)Nc2ccc3c(c2)CCC(=O)N3CC(C)C)cc1
818	COCCOC1CCOC2(CCN(S(=O)(=O)c3cccc(OC)c3)CC2)C1 (stereo not given)
778	O=C(CCc1c[nH]c2ccccc12)N1CCn2cnnc2C1
797	Cc1ccccc1NC(=O)Cn1ncc2c(c1=O)N(CC1CC1)C(=O)CS2
612	Cc1nc(Nc2ccc(Cl)cn2)sc1C(=O)N1CCN(C(C)C)CC1
616	CN1CCN(CCCNC(=O)c2cc3occc3c(Nc3ccc(F)cc3)n2)CC1
676	COCCN1[C@@H]2CCN(C(=O)Nc3ccccc3F)C[C@@]2(C(=O)N2CCOCC2)CCS1(=O)=O
971	COc1ccc(-c2ncc3c(n2)CCN(C(=O)c2ccc(F)cc2Cl)C3)cc1
969	Cc1c(C(=O)NCC(C)C)cnn1-c1cc(-c2nc(C3CC3)no2)ccn1
813	Cc1ccc(Cn2cc(CCC(=O)N3CCC(C(N)=O)CC3)c3ccccc32)cc1
974	COc1cc(-c2noc(CN3C(=O)COc4cc(C)ccc43)n2)cc(OC)c1OC
838	COCc1cc(=O)n(CC(=O)Nc2cc(F)ccc2F)c(N2CCOCC2)n1
645	Cc1oc(-c2[nH]ncc2C(=O)N2CCOCC2)cc1S(=O)(=O)NCC(C)C
575	Cc1cnc2n(c1=O)C(CC(=O)NCCc1ccc(S(N)(=O)=O)cc1)CS2 (stereo not given)
714	Cc1ccn2cc(C(=O)NCC3CCCCC3)nc2c1
1170	O=C(Nc1cccc(Cl)c1)C1CCN(c2nccnc2Sc2ccccc2)CC1
608	Cc1noc(CNC(=O)C2CCN(C(=O)Cn3c(=O)oc4ccccc43)CC2)n1

RP-LC retention time [s]	Structure (SMILES)
732	O=C(Nc1ccc2c(c1)OCO2)N1CCN(Cc2ccccc2)c2ncccc21
797	O=C(CS(=O)Cc1cnn(-c2ccccc2)c1-n1cccc1)NCc1ccccc1 (stereo not given)
759	CCc1ccc(NC(=O)Cn2cc(C(=O)N3CCCC3)c(=O)c3ccc(C)nc32)cc1
921	COc1ccc(Cl)cc1S(=O)(=O)N1CCC(C(=O)Nc2ccccc2F)CC1
698	CCOc1ccc(CNC(=O)C2CCN(c3cnc4nccnc4c3)CC2)cc1
687	Cc1oc2nc3c(c(NC(=O)CN4CCCC4=O)c2c1C)CCCC3
1060	COc1ccc(-c2nnc(-c3cccnc3N3CCN(c4ccc(C)cc4)CC3)o2)cc1
828	CCc1ccccc1NC(=O)c1ncn2c1C(=O)N(C1CC1)C(C)(C(=O)NC1CCCC1)C2 (stereo not given)
745	Cc1cc(Br)ccc1NC(=O)C1CCN(c2cc(=O)n(C)c(=O)n2C)CC1
939	CC(C)c1noc(-c2ccnc(-n3cnc(C(=O)NCc4ccccc4)c3)c2)n1
979	CC1CCN(c2nccnc2Oc2ccc(C(=O)NCc3ccco3)cc2)CC1
707	Cc1[nH]nc(-c2ccc(S(=O)(=O)N3CCOCC3)o2)c1C
1070	COc1cc(OC)cc(-c2nc(-c3nnn(-c4ccccc4)c3C)no2)c1
804	NC(=O)c1cccn1Cc1ccccc1Cl
696	CCOC(=O)Cn1cc(S(=O)(=O)N2CCCC2)ccc1=O
952	Cc1ccc(C(=O)Nc2nc(-c3ccc4c(c3)N(C)C(=O)CO4)cs2)cc1
834	CC(CNC(=O)C1CCCN1S(=O)(=O)c1cc2c(cc1Cl)NC(=O)CO2)c1ccccc1 (stereo not given)
772	O=S1(=O)C[C@H](N2CCN(c3ncccn3)CC2)[C@@H](S(=O)(=O)c2ccc(F)cc2)C1
851	Cc1ccsc1C(=O)N1CCC2(CC1)CC(OCC1CC1)CCO2 (stereo not given)
798	CCOC(=O)c1c(C)[nH]c(C(=O)N2CCCC(C(=O)NCCC(C)C)C2)c1C (stereo not given)
910	Cc1cc(C)c2c(n1)sc1c(=O)n(CC(=O)Nc3ccc(F)c(F)c3)c(C)nc12
785	C=CCN1C(=O)COc2ccc(-c3csc(NC(=O)COC)n3)cc21
1030	COc1cc(OC)cc(-c2nc(-c3cn(Cc4cccc(F)c4)nn3)no2)c1

RP-LC retention time [s]	Structure (SMILES)
745	O=C(Nc1ccccc1)C1CCc2nc(N3CCCCC3)ncc2C1 (stereo not given)
1230	CCN(CC)S(=O)(=O)c1cc(-c2nnc(-c3ccc(Br)cc3)o2)ccc1C
604	CC(C(=O)NCCCN1CCCCCC1)n1ccc2cc(S(=O)(=O)N3CCCCCC3)ccc21 (stereo not given)
664	Cn1nc(C(=O)N2CCCC2)c2c1CCN(C(=O)CCC(=O)N1CCCCCC1)C2
804	COCCCNc1ncc(C(=O)O)c(-c2ccccc2)n1
789	CCOc1ccccc1NC(=O)C1CCN(S(=O)(=O)c2ccc3[nH]c(=O)ccc3c2)CC1
923	Cc1ccc(NC(=O)N2CCC(CCNC(=O)C3(c4ccccc4)CC3)CC2)cc1
915	CCCc1noc(-c2ccc(-n3cnc(C(=O)NC4CCCC4)c3)nc2)n1
1040	O=c1ccc(-c2ccccc2Br)nn1Cc1nc(-c2ccc3c(c2)OCO3)no1
913	COc1ccc(-c2nnc(-c3ccc(Cl)c(S(=O)(=O)N(C)C)c3)o2)cc1
587	Nc1nnc(-c2cccnc2)s1
662	CCC(=O)N1CCc2cc(C(=O)N3CCN(C(=O)c4ccco4)CC3)ccc21
585	O=C(Cn1cnc2c(nc3n2CCCCC3)c1=O)N1CCN(C2CCCCC2)CC1
847	O=C(NCc1ccccc1Cl)C1CCN(c2nnc(-c3ccccc3)o2)CC1
881	O=C(CSc1nnc2c(=O)n(-c3ccccc3)ccn12)c1ccc(Br)cc1
762	Cc1cc(C)c(C)c(S(=O)(=O)N2CCC3(CCN(c4cccnc4)C3)C2)c1C (stereo not given)
1040	Cc1noc(-c2cccn2Cc2cc(F)cc(F)c2)n1
765	O=C(NCc1ccc(Br)cc1)c1ccc(-c2cncnc2)nc1
791	O=C(Nc1ccccc1)C1CCN(C(=O)c2ncn3c2COC(c2ccc(F)cc2)C3)CC1 (stereo not given)
1050	O=C(Cc1cccs1)N1CCCC(c2ccnc(-c3ccc(F)cc3)n2)C1 (stereo not given)

Structure (SMILES)	RP-LC retention time [s]
COc1ccc2c(c1)C1(CCN(S(=O)(=O)c3c(C)noc3C)C1)C(=O)N2C (stereo not given)	877

— the METLIN SMRT retention time set (Domingo-Almenara et al. 2019)
